According to patent publication US5326902A, “Oxyalkyne compounds, pharmaceutical compositions containing them and processes for preparing such compounds and compositions” (Gruenenthal GmbH, priority 1992, dated 1994):

Key:
12-lipoxygenase = target: T1, 12-lipoxygenase (Homo sapiens, UniProt P18054); experiment: Inhibition of 12-lipoxygenase in homogenates of human thrombocytes; format: biochemical; settings: arachidonic acid 40 μM, indomethacin 10 μM, 25° C., read-out: IC50-value of the inhibitory action on 12-Lipoxygenase
T1 sequence (P18054 1-663): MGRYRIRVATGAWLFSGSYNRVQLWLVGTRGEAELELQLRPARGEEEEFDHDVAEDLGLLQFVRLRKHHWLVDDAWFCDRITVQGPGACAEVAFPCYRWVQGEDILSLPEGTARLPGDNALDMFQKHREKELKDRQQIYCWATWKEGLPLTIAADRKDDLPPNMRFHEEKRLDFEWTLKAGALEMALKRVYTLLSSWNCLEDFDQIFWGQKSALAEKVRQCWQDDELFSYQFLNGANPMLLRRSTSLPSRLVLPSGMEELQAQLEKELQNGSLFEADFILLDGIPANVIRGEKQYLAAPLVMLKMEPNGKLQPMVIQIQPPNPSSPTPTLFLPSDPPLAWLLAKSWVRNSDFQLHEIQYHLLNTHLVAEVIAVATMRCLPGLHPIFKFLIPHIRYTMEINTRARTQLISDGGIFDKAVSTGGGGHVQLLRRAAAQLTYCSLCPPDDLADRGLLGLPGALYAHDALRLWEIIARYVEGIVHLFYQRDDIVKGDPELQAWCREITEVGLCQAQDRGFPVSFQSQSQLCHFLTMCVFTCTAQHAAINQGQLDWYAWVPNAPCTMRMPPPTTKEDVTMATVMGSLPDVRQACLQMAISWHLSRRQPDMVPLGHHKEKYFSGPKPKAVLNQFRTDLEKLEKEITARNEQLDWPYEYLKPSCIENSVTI
Protocol: Human thrombocytes were suspended at 3×10^9 cells/ml, fumigated with nitrogen, and sonicated with ultrasonic energy while cooling in ice water. After centrifugation at 10.000 × g for 15 minutes, reduced glutathione (3 mM) was added. 1 ml portions of the 10,000 × g supernatant were incubated with a compound according to the invention or with ethanol at 25° C. for 4 minutes and then with 1-^14 C-labelled arachidonic acid (40 μM) for 7.5 minutes. In addition, indomethacin (10 μM) was added to each sample. The reaction was stopped by adding acetic acid, and then the metabolites of arachidonic acid were extracted with ethyl acetate and analyzed by thin layer chromatography. The distribution of the […] fractions was measured using a TLC-linear analyzer. The IC50 -values were determined graphically from semilogarithmic plots. The IC50 -value of the inhibitory action on 12-Lipoxygenase was 1 μmolar when the compound prepared according to Example 1 was used.

Leukotriene-synthesis = experiment: Inhibition of Leukotriene-synthesis Induced by FMLP/merthiolate of Human Polymorphonuclear Leukocytes; format: cell-based; settings: Leukocyte, 5 minutes preincubation at 37° C., centrifuged and resuspended in HBSS before merthiolate (40 μM) and FMLP (10^-7 M), read-out: IC50-value of the reversible inhibitory action
Protocol: Human granulocytes were isolated by dextran sedimentation and a Percoll gradient method and suspended in HBSS (Hanks buffered saline solution) at 1×10^7 cells/ml. The cells were incubated in the presence of a compound according to the invention or a solvent (ethanol and/or dimethyl sulfoxide) at 37° C. for 2 minutes, then with merthiolate (sodium ethylmercurithiosalicylate; 40 μM) for 2 minutes and thereafter with FMLP (formyl-methionyl-leucylphenylalanine; 10^-7 M) for 15 minutes. After solid phase extraction, the metabolites of arachidonic acid 5-HETE, LTB4, 6-trans-LTB4 -isomers, 20-OH-LTB4 and 20-COOH-LTB4 were identified by RP-HPLC (M. Haurand and L. Flohe in Biochem. Pharmacol. 38, 2129 to 2137 (1989)).
To investigate the reversibility of the inhibitory action, the cells were incubated with a compound according to the invention or a solvent (ethanol and/or dimethyl sulfoxide) at 37° C. for 5 minutes, centrifuged at 300 × g for 5 minutes, and resuspended in 2 ml of HBSS. Then the cells were incubated with merthiolate (40 μM) at 37° C. for 2 minutes and thereafter with FMLP (10^-7 M) for 15 minutes. The IC50 -value of the reversible inhibitory action was 2 μmolar when the compound prepared according to Example 1 was used.

[1] = system: bronchoconstriction elicited by ovalbumin; experiment: Allergen-induced bronchoconstriction in guinea pigs (Konzett-Rossler); format: in vivo, guinea pig; settings: Cavia porcellus, 1 h; oral, 60 minutes before ovalbumin (0.2 mg/kg intravenous); passively sensitized guinea pigs; read-out: ED40-Value (40% average inhibition of the bronchoconstriction elicited by ovalbumin)
Protocol: The anti-asthmatic effect of compounds according to the invention was tested in anesthetized and ventilated guinea pigs. To induce an asthmatic reaction, the animals were passively sensitized by a single intraperitoneal injection of anti-ovalbumin serum. After 48 hours, the asthmatic reaction was elicited by intravenous challenge with 0.2 mg/kg of ovalbumin. The immediately resulting bronchoconstriction was measured as an increase in intratracheal pressure. Effects caused by histamine, serotonin and sympathic counterreaction were eliminated by intravenous pretreatment with 2.15 mg/kg of mepyramine, 46.4 μg/kg of propranolol, 4.64 mg/kg of atropine and 1 mg/kg of methysergide, all administered 5 minutes before challenge. Compounds according to the invention were administered orally 60 minutes before the administration of ovalbumin. The following […] for the inhibition of the bronchoconstriction elicited by ovalbumin, i.e. the effective doses causing a 40% average inhibition of the bronchoconstriction, were determined: […]

SMILES: CC(=O)N(O)Cc1ccc(C(O)C#Cc2ccccc2)cc1 (racemic) [Example 1, N-Hydroxy-N-[4-[1-hydroxy-3-phenyl-prop-2-yn-1-yl]benzyl]acetamide]
- IC50 (12-lipoxygenase): 1 µM
- IC50 (Leukotriene-synthesis): 2 µM
- ED40 [1]: 17 mg/kg
